Measurements published in patent publication US5861375A, “Antiprotozoal cyclic tetrapeptides” (Merck & Co., Inc., priority 1997, dated 1999).

Test system: Plasmodium falciparum
Assay: Radioactive antimalarial assay (parasite specific uptake of radiolabel)
Format: cell-based
Details: P. falciparum
Protocol: Compound of formula Ia was evaluated against Eimeria tenella, Toxoplasma gondii, and Plasmodium falciparum according to methods reported in the literature.
The antimalarial activity was determined in a radioactive assay following the general protocol described in Desjardins et al, "Quantitative Assessment of Antimalarial Activity In Vitro by a Semiautomated Microdilution Technique" Antimicrobial Agents and Chemotherapy. 1979, 16:710-718.

SMILES: CCC(=O)CCCCC[C@@H]1NC(=O)[C@H]2CCCCN2C(=O)[C@H]([C@@H](C)CC)NC(=O)[C@H](Cc2cn(OC)c3ccccc23)NC1=O [Ia]
- IC50 (the concentration of drug which inhibits the parasite specific uptake of radiolabel by 50%): 0.054 µg/mL
